According to article PMC6409085, “Three odorant-binding proteins are involved in the behavioral response of Sogatella furcifera to rice plant volatiles” (PeerJ, 2019):
Several values for one entry are separate records, joined by “and”; a condition that tells them apart may be missing. Equal entries are not always repeated.

Legend:
S. furcifera adults = assay: Y-tube olfactometer behavioral trials; type: in vivo, Sogatella furcifera; conditions: odorant 50 µL/L vs hexane; adults
How it was run: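 Single S. furcifera adults (2 days post-emergence, starved 0.5 h) chose between odorant (100 µL of 50 µL/L on filter paper) and hexane control in a glass Y-tube, charcoal-filtered humidified air 300 mL/min per arm, 25 ± 1 °C, 50% RH. Choice scored if insect passed half an arm and stayed >1 min within 10 min; 45 insects per compound, chi-squared test.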

SfurOBP3 = SfurOBP3 (Sogatella furcifera, UniProt V5T818); assay: biochemical; type: binding; conditions: for Fluorescence competitive binding assay, fluorescence intensity: OBP3, three replicate columns
SfurOBP3, sequence (V5T818 entry or part of it): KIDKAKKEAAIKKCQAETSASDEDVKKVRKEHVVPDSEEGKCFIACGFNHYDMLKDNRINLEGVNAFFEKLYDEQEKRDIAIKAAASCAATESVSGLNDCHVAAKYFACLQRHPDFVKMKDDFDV
How it was run: (§1)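 Fluorescence competitive binding with 1-NPN as reporter: 2.0 µM protein and 2.0 µM 1-NPN in 50 mM Tris-HCl pH 7.4, odorant added at 2–20 µM final. Excitation 337 nm, emission 390–490 nm read 2 min after addition, triplicates. Ki = IC50/(1 + [1-NPN]/K1-NPN).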

SfurOBP11 = SfurOBP11 (Sogatella furcifera, UniProt V5T6E3); assay: biochemical; type: binding
SfurOBP11, sequence (V5T6E3 entry or part of it): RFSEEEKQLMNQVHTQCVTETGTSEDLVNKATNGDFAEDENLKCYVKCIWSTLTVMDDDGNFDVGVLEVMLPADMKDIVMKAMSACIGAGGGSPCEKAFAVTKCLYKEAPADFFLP
How it was run: as §1

SfurOBP2 = SfurOBP2 (Sogatella furcifera, UniProt V5T759); assay: biochemical; type: binding
SfurOBP2, sequence (V5T759 entry or part of it): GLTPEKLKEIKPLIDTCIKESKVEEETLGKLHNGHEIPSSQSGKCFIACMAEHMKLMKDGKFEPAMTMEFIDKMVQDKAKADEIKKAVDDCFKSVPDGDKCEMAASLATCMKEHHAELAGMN
How it was run: as §1

SfurOBP1 = SfurOBP1 (Sogatella furcifera, UniProt V5T8N5); assay: biochemical; type: binding; conditions: for Fluorescence competitive binding assay, fluorescence intensity: OBP1, three replicate columns
SfurOBP1, sequence (V5T8N5 entry or part of it): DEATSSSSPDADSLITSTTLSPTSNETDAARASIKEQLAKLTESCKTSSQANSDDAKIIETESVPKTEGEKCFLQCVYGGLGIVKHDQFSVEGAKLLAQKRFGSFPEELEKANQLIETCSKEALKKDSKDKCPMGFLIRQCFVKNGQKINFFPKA
How it was run: as §1

CCCCCCCCCCCCC=O [tridecanal]
number of insects choosing hexane arm (S. furcifera adults): 11
number of insects choosing volatilies arm (S. furcifera adults): 13
number of insects failed (no choice) (S. furcifera adults): 16
Fluorescence competitive binding assay, fluorescence intensity (SfurOBP3; ligand concentration 2): 42528 and 41583 and 43473
Fluorescence competitive binding assay, fluorescence intensity (SfurOBP3; ligand concentration 4): 41210 and 39055 and 38819
Fluorescence competitive binding assay, fluorescence intensity (SfurOBP3; ligand concentration 6): 40763 and 42069 and 38391
Fluorescence competitive binding assay, fluorescence intensity (SfurOBP3; ligand concentration 8): 40006 and 42611 and 39486
Fluorescence competitive binding assay, fluorescence intensity (SfurOBP3; ligand concentration 10): 37952 and 40731 and 37192
Fluorescence competitive binding assay, fluorescence intensity (SfurOBP3; ligand concentration 12): 41103 and 37710 and 38844
Fluorescence competitive binding assay, fluorescence intensity (SfurOBP3; ligand concentration 14): 39070 and 39869 and 40524
Fluorescence competitive binding assay, fluorescence intensity (SfurOBP3; ligand concentration 16): 39064 and 38170 and 38620
Fluorescence competitive binding assay, fluorescence intensity (SfurOBP3; ligand concentration 18): 39885 and 40160 and 39604
Fluorescence competitive binding assay, fluorescence intensity (SfurOBP3; ligand concentration 20): 39750 and 40400 and 40150
IC50 (SfurOBP3; SfurOBP3, protein and 1-NPN both 2.0 µM, competitor 2-20 µM, read-out: IC50): > 20 µM
IC50 (SfurOBP11; SfurOBP11, protein and 1-NPN both 2.0 µM, competitor 2-20 µM, read-out: IC50): > 20 µM
Fluorescence intensity, fluorescence competitive binding assay, OBP11 (SfurOBP11; ligand concentration 2, replicate 1): 24967
Fluorescence intensity, fluorescence competitive binding assay, OBP11 (SfurOBP11; ligand concentration 2, replicate 2): 25926
Fluorescence intensity, fluorescence competitive binding assay, OBP11 (SfurOBP11; ligand concentration 2, replicate 3): 30699
Fluorescence intensity, fluorescence competitive binding assay, OBP11 (SfurOBP11; ligand concentration 4, replicate 1): 25125
Fluorescence intensity, fluorescence competitive binding assay, OBP11 (SfurOBP11; ligand concentration 4, replicate 2): 27382
Fluorescence intensity, fluorescence competitive binding assay, OBP11 (SfurOBP11; ligand concentration 4, replicate 3): 26896
Fluorescence intensity, fluorescence competitive binding assay, OBP11 (SfurOBP11; ligand concentration 6, replicate 1): 26493
Fluorescence intensity, fluorescence competitive binding assay, OBP11 (SfurOBP11; ligand concentration 6, replicate 2): 26335
Fluorescence intensity, fluorescence competitive binding assay, OBP11 (SfurOBP11; ligand concentration 6, replicate 3): 26650
Fluorescence intensity, fluorescence competitive binding assay, OBP11 (SfurOBP11; ligand concentration 8, replicate 1): 24847
Fluorescence intensity, fluorescence competitive binding assay, OBP11 (SfurOBP11; ligand concentration 8, replicate 2): 24250
Fluorescence intensity, fluorescence competitive binding assay, OBP11 (SfurOBP11; ligand concentration 8, replicate 3): 25420
Fluorescence intensity, fluorescence competitive binding assay, OBP11 (SfurOBP11; ligand concentration 10, replicate 1): 24577
Fluorescence intensity, fluorescence competitive binding assay, OBP11 (SfurOBP11; ligand concentration 10, replicate 2): 24121
Fluorescence intensity, fluorescence competitive binding assay, OBP11 (SfurOBP11; ligand concentration 10, replicate 3): 25032
Fluorescence intensity, fluorescence competitive binding assay, OBP11 (SfurOBP11; ligand concentration 12, replicate 1): 26676
Fluorescence intensity, fluorescence competitive binding assay, OBP11 (SfurOBP11; ligand concentration 12, replicate 2): 27183
Fluorescence intensity, fluorescence competitive binding assay, OBP11 (SfurOBP11; ligand concentration 12, replicate 3): 26168
Fluorescence intensity, fluorescence competitive binding assay, OBP11 (SfurOBP11; ligand concentration 14, replicate 1): 24529
Fluorescence intensity, fluorescence competitive binding assay, OBP11 (SfurOBP11; ligand concentration 14, replicate 2): 23823
Fluorescence intensity, fluorescence competitive binding assay, OBP11 (SfurOBP11; ligand concentration 14, replicate 3): 25235
Fluorescence intensity, fluorescence competitive binding assay, OBP11 (SfurOBP11; ligand concentration 16, replicate 1): 23763
Fluorescence intensity, fluorescence competitive binding assay, OBP11 (SfurOBP11; ligand concentration 16, replicate 2): 25792
Fluorescence intensity, fluorescence competitive binding assay, OBP11 (SfurOBP11; ligand concentration 16, replicate 3): 24713
Fluorescence intensity, fluorescence competitive binding assay, OBP11 (SfurOBP11; ligand concentration 18, replicate 1): 29957
Fluorescence intensity, fluorescence competitive binding assay, OBP11 (SfurOBP11; ligand concentration 18, replicate 2): 29942
Fluorescence intensity, fluorescence competitive binding assay, OBP11 (SfurOBP11; ligand concentration 18, replicate 3): 30678
Fluorescence intensity, fluorescence competitive binding assay, OBP11 (SfurOBP11; ligand concentration 20, replicate 1): 31322
Fluorescence intensity, fluorescence competitive binding assay, OBP11 (SfurOBP11; ligand concentration 20, replicate 2): 31721
Fluorescence intensity, fluorescence competitive binding assay, OBP11 (SfurOBP11; ligand concentration 20, replicate 3): 27795
IC50 (SfurOBP2; SfurOBP2, protein and 1-NPN both 2.0 µM, competitor 2-20 µM, read-out: IC50): > 20 µM
Fluorescence competitive binding assay, OBP2 (raw fluorescence reading) (SfurOBP2; ligand concentration 2 (unit not given), replicate column 1 of 3): 15375
Fluorescence competitive binding assay, OBP2 (raw fluorescence reading) (SfurOBP2; ligand concentration 2 (unit not given), replicate column 2 of 3): 16260
Fluorescence competitive binding assay, OBP2 (raw fluorescence reading) (SfurOBP2; ligand concentration 2 (unit not given), replicate column 3 of 3): 17114
Fluorescence competitive binding assay, OBP2 (raw fluorescence reading) (SfurOBP2; ligand concentration 4 (unit not given), replicate column 1 of 3): 15250
Fluorescence competitive binding assay, OBP2 (raw fluorescence reading) (SfurOBP2; ligand concentration 4 (unit not given), replicate column 2 of 3): 17637
Fluorescence competitive binding assay, OBP2 (raw fluorescence reading) (SfurOBP2; ligand concentration 4 (unit not given), replicate column 3 of 3): 17949
Fluorescence competitive binding assay, OBP2 (raw fluorescence reading) (SfurOBP2; ligand concentration 6 (unit not given), replicate column 1 of 3): 17180
Fluorescence competitive binding assay, OBP2 (raw fluorescence reading) (SfurOBP2; ligand concentration 6 (unit not given), replicate column 2 of 3): 18194
Fluorescence competitive binding assay, OBP2 (raw fluorescence reading) (SfurOBP2; ligand concentration 6 (unit not given), replicate column 3 of 3): 18919
Fluorescence competitive binding assay, OBP2 (raw fluorescence reading) (SfurOBP2; ligand concentration 8 (unit not given), replicate column 1 of 3): 15100
Fluorescence competitive binding assay, OBP2 (raw fluorescence reading) (SfurOBP2; ligand concentration 8 (unit not given), replicate column 2 of 3): 16066
Fluorescence competitive binding assay, OBP2 (raw fluorescence reading) (SfurOBP2; ligand concentration 8 (unit not given), replicate column 3 of 3): 16289
Fluorescence competitive binding assay, OBP2 (raw fluorescence reading) (SfurOBP2; ligand concentration 10 (unit not given), replicate column 1 of 3): 16213
Fluorescence competitive binding assay, OBP2 (raw fluorescence reading) (SfurOBP2; ligand concentration 10 (unit not given), replicate column 2 of 3): 16940
Fluorescence competitive binding assay, OBP2 (raw fluorescence reading) (SfurOBP2; ligand concentration 10 (unit not given), replicate column 3 of 3): 17695
Fluorescence competitive binding assay, OBP2 (raw fluorescence reading) (SfurOBP2; ligand concentration 12 (unit not given), replicate column 1 of 3): 14964
Fluorescence competitive binding assay, OBP2 (raw fluorescence reading) (SfurOBP2; ligand concentration 12 (unit not given), replicate column 2 of 3): 18259
Fluorescence competitive binding assay, OBP2 (raw fluorescence reading) (SfurOBP2; ligand concentration 12 (unit not given), replicate column 3 of 3): 16491
Fluorescence competitive binding assay, OBP2 (raw fluorescence reading) (SfurOBP2; ligand concentration 14 (unit not given), replicate column 1 of 3): 16687
Fluorescence competitive binding assay, OBP2 (raw fluorescence reading) (SfurOBP2; ligand concentration 14 (unit not given), replicate column 2 of 3): 18876
Fluorescence competitive binding assay, OBP2 (raw fluorescence reading) (SfurOBP2; ligand concentration 14 (unit not given), replicate column 3 of 3): 18074
Fluorescence competitive binding assay, OBP2 (raw fluorescence reading) (SfurOBP2; ligand concentration 16 (unit not given), replicate column 1 of 3): 17882
Fluorescence competitive binding assay, OBP2 (raw fluorescence reading) (SfurOBP2; ligand concentration 16 (unit not given), replicate column 2 of 3): 16512
Fluorescence competitive binding assay, OBP2 (raw fluorescence reading) (SfurOBP2; ligand concentration 16 (unit not given), replicate column 3 of 3): 18645
Fluorescence competitive binding assay, OBP2 (raw fluorescence reading) (SfurOBP2; ligand concentration 18 (unit not given), replicate column 1 of 3): 18334
Fluorescence competitive binding assay, OBP2 (raw fluorescence reading) (SfurOBP2; ligand concentration 18 (unit not given), replicate column 2 of 3): 17452
Fluorescence competitive binding assay, OBP2 (raw fluorescence reading) (SfurOBP2; ligand concentration 18 (unit not given), replicate column 3 of 3): 17782
Fluorescence competitive binding assay, OBP2 (raw fluorescence reading) (SfurOBP2; ligand concentration 20 (unit not given), replicate column 1 of 3): 16896
Fluorescence competitive binding assay, OBP2 (raw fluorescence reading) (SfurOBP2; ligand concentration 20 (unit not given), replicate column 2 of 3): 19235
Fluorescence competitive binding assay, OBP2 (raw fluorescence reading) (SfurOBP2; ligand concentration 20 (unit not given), replicate column 3 of 3): 19174
Fluorescence competitive binding assay, fluorescence intensity (SfurOBP1; ligand concentration 2 (μM)): 7938 and 8209 and 9100
Fluorescence competitive binding assay, fluorescence intensity (SfurOBP1; ligand concentration 4 (μM)): 8199 and 9497 and 8248
Fluorescence competitive binding assay, fluorescence intensity (SfurOBP1; ligand concentration 6 (μM)): 9970 and 9490 and 9404
Fluorescence competitive binding assay, fluorescence intensity (SfurOBP1; ligand concentration 8 (μM)): 9879 and 9942 and 9021
Fluorescence competitive binding assay, fluorescence intensity (SfurOBP1; ligand concentration 10 (μM)): 11694 and 10870 and 12178
Fluorescence competitive binding assay, fluorescence intensity (SfurOBP1; ligand concentration 12 (μM)): 10792 and 13471 and 12081
Fluorescence competitive binding assay, fluorescence intensity (SfurOBP1; ligand concentration 14 (μM)): 13762 and 12603 and 7069
Fluorescence competitive binding assay, fluorescence intensity (SfurOBP1; ligand concentration 16 (μM)): 15566 and 12262 and 13672
Fluorescence competitive binding assay, fluorescence intensity (SfurOBP1; ligand concentration 18 (μM)): 13469 and 13374 and 13884
Fluorescence competitive binding assay, fluorescence intensity (SfurOBP1; ligand concentration 20 (μM)): 16296 and 16551 and 15519
IC50 (SfurOBP1; SfurOBP1, protein and 1-NPN both 2.0 µM, competitor 2-20 µM, read-out: IC50): > 20 µM
